{"source": "paper PMC6934184", "about": "“Selective DNA-PKcs inhibition extends the therapeutic index of localized radiotherapy and chemotherapy” (The Journal of Clinical Investigation, 2019)", "target": "T1, PLK4 (Homo sapiens, UniProt O00444)", "T1 construct": "purchased Thermo Fisher Scientific (Life Technologies) SelectScreen", "T1 sequence (O00444 whole entry)": "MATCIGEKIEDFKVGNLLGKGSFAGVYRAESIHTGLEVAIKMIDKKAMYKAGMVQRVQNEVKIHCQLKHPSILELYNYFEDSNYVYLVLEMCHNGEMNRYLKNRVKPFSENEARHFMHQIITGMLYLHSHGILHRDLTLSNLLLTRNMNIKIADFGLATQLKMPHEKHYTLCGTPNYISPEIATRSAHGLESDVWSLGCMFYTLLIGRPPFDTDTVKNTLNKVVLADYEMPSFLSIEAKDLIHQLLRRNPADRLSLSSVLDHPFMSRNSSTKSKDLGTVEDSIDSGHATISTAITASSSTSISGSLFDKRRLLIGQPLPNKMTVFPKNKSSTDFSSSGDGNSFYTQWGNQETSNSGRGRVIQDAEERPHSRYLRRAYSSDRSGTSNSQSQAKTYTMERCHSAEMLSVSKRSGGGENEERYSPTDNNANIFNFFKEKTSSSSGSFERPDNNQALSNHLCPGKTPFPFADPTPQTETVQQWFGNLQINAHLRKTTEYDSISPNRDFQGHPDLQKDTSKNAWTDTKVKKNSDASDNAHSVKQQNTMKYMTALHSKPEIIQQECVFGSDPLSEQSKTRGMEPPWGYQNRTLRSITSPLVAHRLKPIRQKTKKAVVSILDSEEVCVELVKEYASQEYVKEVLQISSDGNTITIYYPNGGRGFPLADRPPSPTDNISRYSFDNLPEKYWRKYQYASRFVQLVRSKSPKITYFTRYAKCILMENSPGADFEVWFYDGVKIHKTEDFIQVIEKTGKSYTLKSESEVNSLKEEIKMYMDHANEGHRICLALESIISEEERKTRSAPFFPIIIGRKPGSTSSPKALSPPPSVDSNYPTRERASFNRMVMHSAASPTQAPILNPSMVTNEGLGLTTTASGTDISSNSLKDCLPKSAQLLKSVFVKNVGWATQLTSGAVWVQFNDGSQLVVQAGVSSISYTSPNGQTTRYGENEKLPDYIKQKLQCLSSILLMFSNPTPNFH", "test": "SelectScreen LanthaScreen", "assay_type": "binding", "conditions": "read-out: % displacement", "method_in_brief": "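SelectScreen broad panel; activity (Z'LYTE, Adapta) plus binding formats. ATP: Km app for CSF1R Z'LYTE; 10 for CAMK1 Adapta. Readout = % per kinase.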"}
{"smiles": "CN(C(=O)CN1CCOCC1)c1ccc2sc3c(-c4cccc5c(=O)cc(N6CC7CCC(C6)O7)oc45)cccc3c2c1", "note": "[NU5455]", "values": [{"measurement": "inhibition at 1 µM", "value": -2.8, "unit": "%"}]}
